For 25 compounds, IC50 results are on record in US20240317721A1, “PYRAZOLYL DERIVATIVES AS INHIBITORS OF THE KRAS MUTANT PROTEIN” (NOVARTIS AG, priority 2021, published 2024).

This test deals with KRasG12C (M1-K169, biotinylated on the N-terminus) (Homo sapiens (Human), UniProt P01116, G12C). As to the kind of experiment: Covalent competition assay: scintillation proximity assay (SPA) quantifying covalent modification of KRASG12C. As to conditions: competition with radiolabeled covalent probe (Compound B/Compound A), 2 hours incubation, 10 nM KRasG12C. It counts as binding. The essentials: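 Test compounds compete with a radiolabeled covalent probe for modification of N-terminally biotinylated KRasG12C(M1-K169):GDP, final 10 nM protein, 25 nM radio-ligand, 475 nM unlabelled ligand, 2 h with agitation in 20 mM Tris-HCl pH 7.5, 150 mM NaCl, 0.1 mM MgCl2, 0.01% Tween-20.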
Take `C=CC(=O)N1CC2(CC(n3nc(N4CCN(C(=O)OCCOC)CC45CCC5)c(-c4c(Cl)c(C)cc5[nH]ncc45)c3C)C2)C1` (single isomer, unassigned) [Example 122b, 2-methoxyethyl 5-(1-(2-acryloyl-2-azaspiro[3.3]heptan-6-yl)-4-(5-chloro-6-methyl-1H-indazol-4-yl)-5-methyl-1H-pyrazol-3-yl)-5,8-diazaspiro[3.5]nonane-8-carboxylate]: the IC50 amounted to 16 nM.

Consider `C=CC(=O)N1CC2(CC(n3nc(N4CCN(C5COC5)CC45CCC5)c(-c4c(C)c(O)cc(C)c4Cl)c3C)C2)C1` (single isomer, unassigned) [Example 49b, 1-(6-(4-(2-chloro-5-hydroxy-3,6-dimethylphenyl)-5-methyl-3-(8-(oxetan-3-yl)-5,8-diazaspiro[3.5]nonan-5-yl)-1H-pyrazol-1-yl)-2-azaspiro[3.3]heptan-2-yl)prop-2-en-1-one], for which the IC50 is above 5000 nM.

Take `C=CC(=O)N1CC2(CC(n3nc(N4CCC(N(CCOC)CCOC)CC45CCC5)c(-c4c(Cl)c(Cl)cc5[nH]ncc45)c3C)C2)C1` (single isomer, unassigned) [Example 80a, 1-(6-(3-(8-(bis(2-methoxyethyl)amino)-5-azaspiro[3.5]nonan-5-yl)-4-(5,6-dichloro-1H-indazol-4-yl)-5-methyl-1H-pyrazol-1-yl)-2-azaspiro[3.3]heptan-2-yl)prop-2-en-1-one]: the IC50 is above 5000 nM.

Take `C=CC(=O)N1CC2(CC(n3nc(N4CC[C@@H](CN(C)CC(=O)N5CCCC5)CC4(C)C)c(-c4c(Cl)c(Cl)cc5[nH]ncc45)c3C)C2)C1` (single isomer, unassigned) [Example 252a]: the IC50 was above 5000 nM.

With `C=CC(=O)N1CC2(CC(n3nc(N4CCN(CC(C)(C)O)CC45CCC5)c(-c4c(OC)c(Cl)cc5[nH]ncc45)c3C)C2)C1` [Example 168, 1-(6-(4-(6-chloro-5-methoxy-1H-indazol-4-yl)-3-(8-(2-hydroxy-2-methylpropyl)-5,8-diazaspiro[3.5]nonan-5-yl)-5-methyl-1H-pyrazol-1-yl)-2-azaspiro[3.3]heptan-2-yl)prop-2-en-1-one], the IC50 came out at 302 nM.

With `C=CC(=O)N1CC2(CC(n3nc(N4CC[C@@H](N(C)C(C)=O)CC4(C)C)c(-c4c(Cl)c(C)cc5[nH]ncc45)c3C)C2)C1` (single isomer, unassigned) [Example 69a], the IC50 is 4400 nM.

Consider `C=CC(=O)N1CC2(CC(n3nc(N4CCN(C5COC5)C[C@]4(C)CC)c(-c4c(Cl)c(C)cc5[nH]nc(N)c45)c3C)C2)C1` (single isomer, unassigned) [Example 158b], for which the half-maximal inhibitory concentration (IC50) was found to be 172 nM.

On to `C=CC(=O)N1CC2(CC(n3nc(N4CCC5(CN(C6COC6)C5)CC45CCC5)c(-c4c(Cl)c(C)cc5[nH]ncc45)c3C)C2)C1` (single isomer, unassigned) [Example 93b, 1-(6-(4-(5-chloro-6-methyl-1H-indazol-4-yl)-5-methyl-3-(2-(oxetan-3-yl)-2,10-diazadispiro[3.1.3^6.3^4]dodecan-10-yl)-1H-pyrazol-1-yl)-2-azaspiro[3.3]heptan-2-yl)prop-2-en-1-one], for which the IC50 was determined as 12 nM.

Turning to `C=CC(=O)N1CC2(CC(n3nc(N4CCC(N(C)C5COC5)CC45CCC5)c(-c4c(Cl)c(C)cc5[nH]ncc45)c3C)C2)C1` (single isomer, unassigned) [Example 51b, 1-(6-(4-(5-chloro-6-methyl-1H-indazol-4-yl)-5-methyl-3-(8-(methyl(oxetan-3-yl)amino)-5-azaspiro[3.5]nonan-5-yl)-1H-pyrazol-1-yl)-2-azaspiro[3.3]heptan-2-yl)prop-2-en-1-one], the IC50 worked out at 668 nM.

In the case of `C=CC(=O)N1CC2(CC(n3nc(N4CC[C@@H](CN5CCN(CCOC)C(=O)C5)CC4(C)C)c(-c4c(Cl)c(Cl)cc5[nH]ncc45)c3C)C2)C1` (single isomer, unassigned) [Example 256a], the IC50 came to 1300 nM.

Take `C=CC(=O)N1CC2(CC(n3nc(N4CCN(C(=O)[C@@H]5CCCO5)CC45CCC5)c(-c4c(Cl)c(C)cc5[nH]ncc45)c3C)C2)C1` (single isomer, unassigned) [Example 124b]: the concentration for half-maximal inhibition (IC50) turned out to be 20 nM.

Consider `C=CC(=O)N1CC2(CC(n3nc(N4CCN(C(=O)COC)CC45CCC5)c(-c4c(Cl)c(C)cc5[nH]ncc45)c3C)C2)C1` (single isomer, unassigned) [Example 123b, 1-(6-(4-(5-chloro-6-methyl-1H-indazol-4-yl)-3-(8-(2-methoxyacetyl)-5,8-diazaspiro[3.5]nonan-5-yl)-5-methyl-1H-pyrazol-1-yl)-2-azaspiro[3.3]heptan-2-yl)prop-2-en-1-one], for which the IC50 was 21 nM.

In the case of `C=CC(=O)N1CC2(CC(n3nc(N4CCC(N5C[C@@H]6C[C@H]5CO6)CC4(C)C)c(-c4c(Cl)c(C)cc5[nH]ncc45)c3C)C2)C1` (single isomer, unassigned) [Example 83b], the IC50 stood at 26 nM.

In the case of `C=CC(=O)N1CC2(CC(n3nc(N4CCN(C(C)=O)CC4)c(-c4c(Cl)ccc5[nH]ncc45)c3C)C2)C1C` (single isomer, unassigned) [Example 196b, 1-(6-(3-(4-acetylpiperazin-1-yl)-4-(5-chloro-1H-indazol-4-yl)-5-methyl-1H-pyrazol-1-yl)-1-methyl-2-azaspiro[3.3]heptan-2-yl)prop-2-en-1-one], the half-maximal inhibitory concentration (IC50) came out at 9000 nM.

With `C=CC(=O)N1CC2(CC(n3nc(N4CCC(CN5CC6CC(C5)O6)CC4(C)C)c(-c4c(Cl)c(Cl)cc5[nH]ncc45)c3C)C2)C1` (single isomer, unassigned) [Example 229b, 1-(6-(3-(4-((6-oxa-3-azabicyclo[3.1.1]heptan-3-yl)methyl)-2,2-dimethylpiperidin-1-yl)-4-(5,6-dichloro-1H-indazol-4-yl)-5-methyl-1H-pyrazol-1-yl)-2-azaspiro[3.3]heptan-2-yl)prop-2-en-1-one], the IC50 was 11 nM.

Take `C=CC(=O)N1CC2(CC(n3nc(N4CCN(CCOC)C[C@]4(C)C(F)F)c(-c4c(Cl)c(C)cc5[nH]ncc45)c3C)C2)C1` (single isomer, unassigned) [Example 178a]: the IC50 turned out to be 3900 nM.

On to `C=CC(=O)N1CC2(CC(n3nc(N4CCN(C[C@@H]5COCCO5)CC4(C)C)c(-c4c(Cl)c(Cl)cc5[nH]ncc45)c3C)C2)C1` (single isomer, unassigned) [Example 172a], for which the IC50 came to 3900 nM.

Consider `C=CC(=O)N1CC2(CC(n3nc(N4CCN(C5CCOCC5)C[C@]4(C)COC)c(-c4c(Cl)c(C)cc5[nH]ncc45)c3C)C2)C1` (single isomer, unassigned) [Example 149a], for which the IC50 was 766 nM.

Turning to `C=CC(=O)N1CC2(CC(n3nc(N4CC[C@@H](CN5CC6CC6(O)C5)CC4(C)C)c(-c4c(Cl)c(Cl)cc5[nH]ncc45)c3C)C2)C1` (single isomer, unassigned) [Example 257b], the 50% inhibitory concentration (IC50) was 12 nM.

As for `C=CC(=O)N1CC2(CC(n3nc(N4CCN(C5CCOCC5)CC45CCC5)c(-c4c(Cl)c(C)cc5[nH]ncc45)c3C)C2)C1` (single isomer, unassigned) [Example 130a, 1-(6-(4-(5-Chloro-6-methyl-1H-indazol-4-yl)-5-methyl-3-(8-(tetrahydro-2H-pyran-4-yl)-5,8-diazaspiro[3.5]nonan-5-yl)-1H-pyrazol-1-yl)-2-azaspiro[3.3]heptan-2-yl)prop-2-en-1-one], the IC50 is above 5000 nM.

Consider `C=CC(=O)N1CC2(CC(n3nc(N4CCC(O)CC4(C)C)c(-c4c(Cl)c(C)cc5[nH]ncc45)c3C)C2)C1` (single isomer, unassigned) [Example 30b, 1-(6-(4-(5-chloro-6-methyl-1H-indazol-4-yl)-3-(4-hydroxy-2,2-dimethylpiperidin-1-yl)-5-methyl-1H-pyrazol-1-yl)-2-azaspiro[3.3]heptan-2-yl)prop-2-en-1-one], for which the IC50 turned out to be 2700 nM.

Regarding `C=CC(=O)N1CC2(CC(n3nc(N4CCN(Cc5ccccc5)CC45CCC5)c(-c4c(Cl)c(C)cc5[nH]ncc45)c3C)C2)C1` (single isomer, unassigned) [Example 100a, 1-(6-(3-(8-benzyl-5,8-diazaspiro[3.5]nonan-5-yl)-4-(5-chloro-6-methyl-1H-indazol-4-yl)-5-methyl-1H-pyrazol-1-yl)-2-azaspiro[3.3]heptan-2-yl)prop-2-en-1-one], the IC50 is above 5000 nM.

`C=CC(=O)N1CC2(CC(n3nc(N4CCN(C5COC5)CC45CCOC5)c(-c4c(Cl)c(C)cc5[nH]ncc45)c3C)C2)C1` (single isomer, unassigned) [Example 141b, 1-(6-(4-(5-chloro-6-methyl-1H-indazol-4-yl)-5-methyl-3-(9-(oxetan-3-yl)-2-oxa-6,9-diazaspiro[4.5]decan-6-yl)-1H-pyrazol-1-yl)-2-azaspiro[3.3]heptan-2-yl)prop-2-en-1-one]: the IC50 worked out at 104 nM.

As for `C=CC(=O)N1CC2(CC(n3nc(N4CCN(C5CCOCC5)CC4(C)C)c(-c4c(Cl)c(C)cc5[nH]ncc45)c3C)C2)C1` (single isomer, unassigned) [Example 134b, 1-(6-(4-(5-chloro-6-methyl-1H-indazol-4-yl)-3-(2,2-dimethyl-4-(tetrahydro-2H-pyran-4-yl)piperazin-1-yl)-5-methyl-1H-pyrazol-1-yl)-2-azaspiro[3.3]heptan-2-yl)prop-2-en-1-one], the half-inhibitory concentration (IC50) came to 46 nM.

Consider `C=CC(=O)N1CC2(CC(n3nc(N4CCN(C5COC5)CC45CCCC5)c(-c4c(Cl)c(C)cc5[nH]ncc45)c3C)C2)C1` (single isomer, unassigned) [Example 144a, 1-(6-(4-(5-chloro-6-methyl-1H-indazol-4-yl)-5-methyl-3-(9-(oxetan-3-yl)-6,9-diazaspiro[4.5]decan-6-yl)-1H-pyrazol-1-yl)-2-azaspiro[3.3]heptan-2-yl)prop-2-en-1-one], for which the IC50 is above 5000 nM.
